This note sets out measurements from patent US9193725B2, “Cyclic hydrazine derivatives as HIV attachment inhibitors” (priority 2012, dated 2015).

In the test the test system is HIV-1 LAI envelope single-round infectious reporter virus. The experiment in a line: Single-round infectious luciferase reporter virus (HIV-1 LAI envelope) infection of MT2 cells. The format is cell-based. To be noted: Human immunodeficiency virus 1, MT2, 72 h. From the text:
• Virus production—Human embryonic Kidney cell line, 293T (HEK 293T), was propagated in Dulbecco's Modified Eagle Medium (Invitrogen, Carlsbad, Calif.) containing 10% fetal bovine serum (FBS, Sigma, St. Louis, Mo.). The human T-cell leukemia cell MT2 (AIDS Research and Reference Reagent Program, Cat. 237) was propagated in RPMI 1640 (Invitrogen, Carlsbad, Calif.) containing 10% fetal bovine serum (FBS, Hyclone, Logan, Utah) • Virus infection—Single-round infectious reporter virus was produced by co-transfecting HEK 293T cells with plasmide expressing the HIV-1 LAI envelope along with a plasmid containing an HIV-1 LAI proviral cDNA with the envelope gene replaced by a firefly luciferase reporter gene (Chen et al., Ref 41). Transfections were performed using lipofectAMINE PLUS reagent as described by the manufacturer (Invitrogen, Carlsbad, Calif.). Experimental Procedure • 1. MT2 cells were plated in black, 384 well plates at a cell density of 5×10^3 cells per well in 25 μl RPMI 1640 containing 10% FBS. • 2. Compound (diluted in dimethylsulfoxide and growth medium) was added to cells at 12.5 μl/well, so that the final assay concentration would be ≦50 nM. • 3. 12.5 μl of single-round infectious reporter virus in Dulbecco's Modified Eagle Medium was added to the plated cells and compound at an approximate multiplicity of infection (MOI) of 0.01, resulting in a final volume of 50 μl per well. • 4. Virus-infected cells were incubated at 37 degrees Celsius in a CO2 incubator and harvested 72 h after infection. • 5. Viral infection was monitored by measuring luciferase expression in the infected cells using a luciferase reporter gene assay kit (Steady-Glo, Promega, Madison, Wis.) as described by the manufacturer. Luciferase activity was then quantified by measuring luminescence using an EnVision Multilabel Plate Readers (PerkinElmer, Waltham, Mass.). • 6. The percent inhibition for each compound was calculated by quantifying the level of luciferase expression in cells infected in the presence of each compound as a percentage of that observed for cells infected in the absence of compound and subtracting such a determined value from 100. • 7. An EC50 provides a method for comparing the antiviral potency of the compounds of this disclosure. The effective concentration for fifty percent inhibition (EC50) was calculated with the Microsoft Excel Xlfit curve fitting software. For each compound, curves were generated from percent inhibition calculated at 10 different concentrations by using a four parameter logistic model (model 205). Table 1 is the key for the data in Table 2.

Where [1] appears, read: read-out: EC50 Group from Table 1.

Molecules are shown by their SMILES. Where two headings read alike, the source gives them in different places. A value given as a limit tells only on which side of the number the result lay.

For orientation: EC50 means the concentration at which the effect is half-maximal. Turning to `N#C/C(=C1\CCN(C(=O)C(=O)c2c[nH]c3c(-n4ccnn4)ncc(F)c23)NC1)c1ccccc1` [Compound 1001], the EC50 under setting [1] is less than 500 nM.
For `COc1cnc(-n2cnc(C)n2)c2[nH]cc(C(=O)C(=O)N3CC/C(=C(\C#N)c4ccccc4)CN3)c12` [Compound 1002], the response was half-maximal at 0.29 nM (EC50). The EC50 under setting [1] is less than 500 nM.
The corresponding values for `COc1cnc(-n2cnc(C)n2)c2[nH]cc(C(=O)C(=O)N3CC/C(=C(/C#N)c4ccccc4)CN3C)c12` [Compound 1006, (Z)-2-(1-(2-(4-methoxy-7-(3-methyl-1H-1,2,4-triazol-1-yl)-1H-pyrrolo[2,3-c]pyridin-3-yl)-2-oxoacetyl)-2-methylpiperazin-4-ylidene)-2-phenylacetonitrile] are 456 nM and less than 500 nM.
Turning to `COc1cnc(-n2cnc(C)n2)c2[nH]cc(C(=O)C(=O)N3CCc4c(-c5ccccc5)ncnc4N3C)c12` [Compound 2001, 1-(4-methoxy-7-(3-methyl-1H-1,2,4-triazol-1-yl)-1H-pyrrolo[2,3-c]pyridin-3-yl)-2-(1-methyl-5-phenyl-3,4-dihydropyrimido[4,5-c]pyridazin-2(1H)-yl)ethane-1,2-dione], the EC50 under setting [1] was less than 500 nM.
Same read-out and setting: under `COc1cnc(-n2cnc(C)n2)c2[nH]cc(C(=O)C(=O)N3CCc4c(-c5ccccn5)ncnc4N3C)c12` [Compound 2002, 1-(4-methoxy-7-(3-methyl-1H-1,2,4-triazol-1-yl)-1H-pyrrolo[2,3-c]pyridin-3-yl)-2-(1-methyl-5-(pyridin-2-yl)-3,4-dihydropyrimido[4,5-c]pyridazin-2(1H)-yl)ethane-1,2-dione] stands less than 500 nM; under `COc1cnc(-n2cnc(C)n2)c2[nH]cc(C(=O)C(=O)N3C(C)Cc4c(-c5ccccc5)ncnc4N3C)c12` (stereo not drawn) [Compound 2003, 1-(1,3-dimethyl-5-phenyl-3,4-dihydropyrimido[4,5-c]pyridazin-2(1H)-yl)-2-(4-methoxy-7-(3-methyl-1H-1,2,4-triazol-1-yl)-1H-pyrrolo[2,3-c]pyridin-3-yl)ethane-1,2-dione], less than 500 nM; under `COc1cnc(-n2cnc(C)n2)c2[nH]cc(C(=O)C(=O)N3CCc4c(ncnc4-c4ccccc4)N3)c12` [Compound 2004, 1-(4-methoxy-7-(3-methyl-1H-1,2,4-triazol-1-yl)-1H-pyrrolo[2,3-c]pyridin-3-yl)-2-(5-phenyl-3,4-dihydropyrimido[4,5-c]pyridazin-2(1H)-yl)ethane-1,2-dione], less than 500 nM.
